Assays:
Experiment in all cases: radiometric filter-binding kinase assay, Kinaseprofiler
SRPK3 (human) = SRPK3 (human) (UniProt Q9UPE1); conditions: ATP 15 µM
IKBKB (human) = IKBKB (human) (UniProt O14920); conditions: ATP 10 µM
CHUK (human) = CHUK (human) (UniProt O15111); conditions: ATP 10 µM
PRKX (human) = PRKX (human) (UniProt P51817); conditions: ATP 200 µM
RPS6KA1 KD1 KD2 (human) = RPS6KA1 KD1 KD2 (human) (UniProt Q15418); conditions: ATP 45 µM
CDK3 CCNE1 (human) = CDK3 CCNE1 (human) (UniProt Q00526+P24864); conditions: ATP 200 µM
PLK1 (human) = PLK1 (human) (UniProt P53350); conditions: ATP 70 µM
MAPK3 (human) = MAPK3 (human) (UniProt P27361); conditions: ATP 70 µM
RPS6KA2 KD1 KD2 (human) = RPS6KA2 KD1 KD2 (human) (UniProt Q15349); conditions: ATP 10 µM
[1] = tested on: AXL (human), P30530 [Q764R]; conditions: ATP 90 µM
STK11 (human) = STK11 (human) (UniProt Q15831); conditions: ATP 155 µM
HIPK1 (human) = HIPK1 (human) (UniProt Q86Z02); conditions: ATP 45 µM
DAPK2 (human) = DAPK2 (human) (UniProt Q9UIK4); conditions: ATP 10 µM
FGFR2 (human) = FGFR2 (human) (UniProt P21802); conditions: ATP 90 µM
ROCK1 (human) = ROCK1 (human) (UniProt Q13464); conditions: ATP 70 µM
ZAP70 (human) = ZAP70 (human) (UniProt P43403); conditions: ATP 15 µM
TYRO3 (human) = TYRO3 (human) (UniProt Q06418); conditions: ATP 45 µM
ULK3 (human) = ULK3 (human) (UniProt Q6PHR2); conditions: ATP 10 µM
PRKCB1 (human) = PRKCB1 (human) (UniProt P05771); conditions: ATP 10 µM
ITK (human) = ITK (human) (UniProt Q08881); conditions: ATP 200 µM
FGFR1 (human) = FGFR1 (human) (UniProt P11362); conditions: ATP 200 µM
ERBB4 (human) = ERBB4 (human) (UniProt Q15303); conditions: ATP 15 µM
SRPK1 (human) = SRPK1 (human) (UniProt Q96SB4); conditions: ATP 10 µM
PASK (human) = PASK (human) (UniProt Q96RG2); conditions: ATP 15 µM
CDK7 CCNH MNAT1 (human) = CDK7 CCNH MNAT1 (human) (UniProt P50613+P51948+P51946); conditions: ATP 90 µM
ULK2 (human) = ULK2 (human) (UniProt Q8IYT8); conditions: ATP 15 µM
PAK4 (human) = PAK4 (human) (UniProt O96013); conditions: ATP 10 µM
ABL1 (human) = ABL1 (human) (UniProt P00519); conditions: ATP 10 µM
RIPK2 (human) = RIPK2 (human) (UniProt O43353); conditions: ATP 120 µM
KDR (human) = KDR (human) (UniProt P35968); conditions: ATP 90 µM
YES1 (human) = YES1 (human) (UniProt P07947); conditions: ATP 45 µM
[2] = tested on: SGK1 (human), O00141 [S422D]; conditions: ATP 90 µM

Sequence of RIPK2 (human) (O43353 whole entry, looked up): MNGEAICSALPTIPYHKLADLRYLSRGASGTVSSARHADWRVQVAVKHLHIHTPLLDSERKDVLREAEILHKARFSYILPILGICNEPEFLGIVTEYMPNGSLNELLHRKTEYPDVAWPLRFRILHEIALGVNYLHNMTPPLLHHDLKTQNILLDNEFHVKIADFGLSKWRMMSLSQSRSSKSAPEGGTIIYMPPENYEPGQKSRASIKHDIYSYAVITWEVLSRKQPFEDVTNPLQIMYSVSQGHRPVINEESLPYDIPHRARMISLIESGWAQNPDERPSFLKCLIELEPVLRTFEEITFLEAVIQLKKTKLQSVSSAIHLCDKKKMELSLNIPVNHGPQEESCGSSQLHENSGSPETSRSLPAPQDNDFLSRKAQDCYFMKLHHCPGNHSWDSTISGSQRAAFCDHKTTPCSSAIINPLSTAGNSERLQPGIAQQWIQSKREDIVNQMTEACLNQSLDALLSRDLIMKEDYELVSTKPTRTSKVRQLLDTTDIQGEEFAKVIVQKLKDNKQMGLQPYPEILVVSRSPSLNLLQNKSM
Sequence of PASK (human) (Q96RG2 whole entry, looked up): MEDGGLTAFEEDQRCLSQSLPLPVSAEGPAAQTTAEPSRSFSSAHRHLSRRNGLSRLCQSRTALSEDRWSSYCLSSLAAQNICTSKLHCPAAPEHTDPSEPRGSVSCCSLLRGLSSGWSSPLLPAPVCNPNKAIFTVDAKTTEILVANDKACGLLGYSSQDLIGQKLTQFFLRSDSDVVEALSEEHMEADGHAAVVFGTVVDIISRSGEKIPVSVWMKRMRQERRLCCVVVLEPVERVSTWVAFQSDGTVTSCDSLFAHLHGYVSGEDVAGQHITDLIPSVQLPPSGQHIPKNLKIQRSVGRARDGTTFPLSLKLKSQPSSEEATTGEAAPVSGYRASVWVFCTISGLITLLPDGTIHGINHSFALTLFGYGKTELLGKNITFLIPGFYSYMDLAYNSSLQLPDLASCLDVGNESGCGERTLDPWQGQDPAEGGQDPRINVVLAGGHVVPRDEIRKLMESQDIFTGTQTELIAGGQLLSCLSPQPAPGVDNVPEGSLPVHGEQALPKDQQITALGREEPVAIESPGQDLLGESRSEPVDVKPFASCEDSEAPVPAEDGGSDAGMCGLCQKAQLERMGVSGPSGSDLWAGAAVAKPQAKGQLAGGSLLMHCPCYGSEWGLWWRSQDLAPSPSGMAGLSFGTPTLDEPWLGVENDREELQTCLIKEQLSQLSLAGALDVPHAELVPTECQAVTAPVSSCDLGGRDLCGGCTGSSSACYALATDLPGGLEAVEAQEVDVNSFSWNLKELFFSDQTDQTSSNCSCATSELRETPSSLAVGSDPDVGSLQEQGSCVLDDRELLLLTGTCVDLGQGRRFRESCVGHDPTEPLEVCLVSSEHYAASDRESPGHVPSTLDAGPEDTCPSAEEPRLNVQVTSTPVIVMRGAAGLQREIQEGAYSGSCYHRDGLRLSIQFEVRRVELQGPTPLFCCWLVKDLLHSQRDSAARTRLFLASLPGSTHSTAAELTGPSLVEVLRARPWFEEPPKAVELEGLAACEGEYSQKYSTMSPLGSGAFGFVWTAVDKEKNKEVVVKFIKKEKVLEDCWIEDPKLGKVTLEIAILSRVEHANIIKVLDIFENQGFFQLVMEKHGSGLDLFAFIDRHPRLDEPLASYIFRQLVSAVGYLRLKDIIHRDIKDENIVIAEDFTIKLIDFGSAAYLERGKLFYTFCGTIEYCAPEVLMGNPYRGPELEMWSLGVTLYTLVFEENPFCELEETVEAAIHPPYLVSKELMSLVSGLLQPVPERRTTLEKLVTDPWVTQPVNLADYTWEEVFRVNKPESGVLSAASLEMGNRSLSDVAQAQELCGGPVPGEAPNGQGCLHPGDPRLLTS
Sequence of RPS6KA1 KD1 KD2 (human) (Q15418 whole entry, looked up): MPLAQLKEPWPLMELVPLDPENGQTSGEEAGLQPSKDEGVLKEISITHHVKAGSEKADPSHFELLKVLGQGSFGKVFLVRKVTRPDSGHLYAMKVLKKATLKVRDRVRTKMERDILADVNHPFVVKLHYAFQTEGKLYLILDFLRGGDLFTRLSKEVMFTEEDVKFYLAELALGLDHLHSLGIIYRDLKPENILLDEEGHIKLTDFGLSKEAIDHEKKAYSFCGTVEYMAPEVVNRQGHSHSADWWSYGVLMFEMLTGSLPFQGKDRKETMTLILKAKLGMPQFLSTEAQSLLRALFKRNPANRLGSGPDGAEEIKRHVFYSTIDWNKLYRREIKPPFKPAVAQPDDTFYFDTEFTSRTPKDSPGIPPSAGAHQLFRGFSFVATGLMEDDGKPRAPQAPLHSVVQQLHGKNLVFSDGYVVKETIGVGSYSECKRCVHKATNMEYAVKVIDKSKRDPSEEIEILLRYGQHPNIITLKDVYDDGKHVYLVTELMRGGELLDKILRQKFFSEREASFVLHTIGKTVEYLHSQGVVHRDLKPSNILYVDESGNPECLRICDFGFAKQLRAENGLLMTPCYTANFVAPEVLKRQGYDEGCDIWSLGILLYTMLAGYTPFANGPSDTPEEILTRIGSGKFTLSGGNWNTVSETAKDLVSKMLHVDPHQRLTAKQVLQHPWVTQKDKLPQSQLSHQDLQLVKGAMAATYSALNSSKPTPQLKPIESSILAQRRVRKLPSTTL
Sequence of PLK1 (human) (P53350 whole entry, looked up): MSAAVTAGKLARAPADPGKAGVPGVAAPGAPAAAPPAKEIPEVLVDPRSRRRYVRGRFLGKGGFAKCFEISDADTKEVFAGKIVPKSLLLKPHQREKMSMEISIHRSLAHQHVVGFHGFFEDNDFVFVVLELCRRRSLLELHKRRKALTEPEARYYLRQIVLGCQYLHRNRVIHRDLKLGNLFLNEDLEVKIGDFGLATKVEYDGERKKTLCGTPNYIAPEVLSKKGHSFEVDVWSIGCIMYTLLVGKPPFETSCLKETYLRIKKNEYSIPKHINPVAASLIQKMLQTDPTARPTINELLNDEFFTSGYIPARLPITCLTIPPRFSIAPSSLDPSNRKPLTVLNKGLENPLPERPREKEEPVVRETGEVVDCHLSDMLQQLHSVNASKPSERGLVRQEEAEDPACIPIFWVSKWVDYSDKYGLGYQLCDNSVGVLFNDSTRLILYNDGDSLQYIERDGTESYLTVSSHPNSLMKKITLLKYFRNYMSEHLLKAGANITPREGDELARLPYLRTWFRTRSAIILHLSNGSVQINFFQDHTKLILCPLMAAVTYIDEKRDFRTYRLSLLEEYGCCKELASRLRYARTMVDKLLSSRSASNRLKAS
Sequence of PAK4 (human) (O96013 whole entry, looked up): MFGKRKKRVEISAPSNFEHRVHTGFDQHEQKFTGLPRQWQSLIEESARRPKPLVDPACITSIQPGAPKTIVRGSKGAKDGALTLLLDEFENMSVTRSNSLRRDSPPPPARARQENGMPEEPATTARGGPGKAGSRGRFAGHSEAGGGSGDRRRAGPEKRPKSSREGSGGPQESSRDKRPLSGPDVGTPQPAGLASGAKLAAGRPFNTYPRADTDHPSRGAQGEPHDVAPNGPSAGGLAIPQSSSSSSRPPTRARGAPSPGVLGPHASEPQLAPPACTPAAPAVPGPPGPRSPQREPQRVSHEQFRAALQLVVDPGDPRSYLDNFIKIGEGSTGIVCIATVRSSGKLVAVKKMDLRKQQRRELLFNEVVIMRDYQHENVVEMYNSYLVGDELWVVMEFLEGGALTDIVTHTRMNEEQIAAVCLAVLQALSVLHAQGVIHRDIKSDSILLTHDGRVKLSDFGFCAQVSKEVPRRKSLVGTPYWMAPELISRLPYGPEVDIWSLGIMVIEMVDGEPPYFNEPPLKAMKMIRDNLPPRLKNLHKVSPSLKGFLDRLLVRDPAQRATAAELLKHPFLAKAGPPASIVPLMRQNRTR
Sequence of TYRO3 (human) (Q06418 whole entry, looked up): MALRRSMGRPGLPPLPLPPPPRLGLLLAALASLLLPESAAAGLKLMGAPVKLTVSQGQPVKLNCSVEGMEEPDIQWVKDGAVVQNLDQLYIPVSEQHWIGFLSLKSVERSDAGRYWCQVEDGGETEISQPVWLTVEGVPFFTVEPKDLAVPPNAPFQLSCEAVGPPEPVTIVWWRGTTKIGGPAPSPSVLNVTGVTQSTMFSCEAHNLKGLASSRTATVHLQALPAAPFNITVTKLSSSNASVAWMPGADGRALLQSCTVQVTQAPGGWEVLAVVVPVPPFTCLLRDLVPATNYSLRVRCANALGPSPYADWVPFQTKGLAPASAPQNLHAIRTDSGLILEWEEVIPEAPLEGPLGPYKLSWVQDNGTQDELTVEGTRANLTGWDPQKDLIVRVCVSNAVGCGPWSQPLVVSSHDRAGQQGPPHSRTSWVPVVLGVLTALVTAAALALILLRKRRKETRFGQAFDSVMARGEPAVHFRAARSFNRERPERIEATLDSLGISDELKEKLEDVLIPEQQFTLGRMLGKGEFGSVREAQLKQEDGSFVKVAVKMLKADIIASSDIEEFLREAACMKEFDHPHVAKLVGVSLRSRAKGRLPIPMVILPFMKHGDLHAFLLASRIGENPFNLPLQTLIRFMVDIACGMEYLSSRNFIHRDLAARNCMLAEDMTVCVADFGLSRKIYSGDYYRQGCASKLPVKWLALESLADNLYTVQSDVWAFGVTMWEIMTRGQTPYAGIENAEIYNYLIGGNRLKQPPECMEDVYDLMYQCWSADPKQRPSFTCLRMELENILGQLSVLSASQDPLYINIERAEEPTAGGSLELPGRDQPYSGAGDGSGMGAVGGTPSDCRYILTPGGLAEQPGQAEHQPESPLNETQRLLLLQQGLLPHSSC
Sequence of DAPK2 (human) (Q9UIK4 whole entry, looked up): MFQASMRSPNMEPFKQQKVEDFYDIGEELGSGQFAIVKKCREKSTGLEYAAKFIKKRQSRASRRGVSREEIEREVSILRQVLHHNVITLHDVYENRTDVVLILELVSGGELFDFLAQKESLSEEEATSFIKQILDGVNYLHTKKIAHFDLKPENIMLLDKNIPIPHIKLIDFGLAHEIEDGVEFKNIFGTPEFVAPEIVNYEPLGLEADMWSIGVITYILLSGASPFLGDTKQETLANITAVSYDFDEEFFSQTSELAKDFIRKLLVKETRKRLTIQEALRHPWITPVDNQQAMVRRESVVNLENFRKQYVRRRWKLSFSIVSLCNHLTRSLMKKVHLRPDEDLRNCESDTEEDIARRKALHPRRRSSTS

**Q.** How did the residual activity (SRPK3 (human); compound 1.0 µM) turn out when `O=C1Nc2ccccc2/C1=C1\Nc2ccccc2\C1=N/O` was run?
**A.** Its residual activity is 85%.

**Q.** And the residual activity (SRPK3 (human); compound 10.0 µM)?
**A.** The residual activity was 46%.

**Q.** What about the residual activity (IKBKB (human); compound 1.0 µM) of the same molecule?
**A.** Its residual activity is 87%.

**Q.** What about the residual activity (IKBKB (human); compound 10.0 µM) of the same molecule?
**A.** Its residual activity is 67%.

**Q.** What about the residual activity (CHUK (human); compound 1.0 µM) of the same molecule?
**A.** Its residual activity is 76%.

**Q.** And the residual activity (CHUK (human); compound 10.0 µM)?
**A.** The residual activity was 57%.

**Q.** What about the residual activity (PRKX (human); compound 1.0 µM) of the same molecule?
**A.** The residual activity was 48%.

**Q.** What about the residual activity (PRKX (human); compound 10.0 µM) of the same molecule?
**A.** The residual activity was 33%.

**Q.** What about the residual activity (RPS6KA1 KD1 KD2 (human); compound 1.0 µM) of the same molecule?
**A.** The residual activity was 40%.

**Q.** And the residual activity (RPS6KA1 KD1 KD2 (human); compound 10.0 µM)?
**A.** Its residual activity is 6%.

**Q.** And the residual activity (CDK3 CCNE1 (human); compound 1.0 µM)?
**A.** Its residual activity is 5%.

**Q.** What about the residual activity (CDK3 CCNE1 (human); compound 10.0 µM) of the same molecule?
**A.** The residual activity was 0%.

**Q.** And the residual activity (PLK1 (human); compound 1.0 µM)?
**A.** The residual activity was 83%.

**Q.** And the residual activity (PLK1 (human); compound 10.0 µM)?
**A.** Its residual activity is 103%.

**Q.** What about the residual activity (MAPK3 (human); compound 1.0 µM) of the same molecule?
**A.** Its residual activity is 114%.

**Q.** And the residual activity (MAPK3 (human); compound 10.0 µM)?
**A.** Its residual activity is 101%.

**Q.** And the residual activity (RPS6KA2 KD1 KD2 (human); compound 1.0 µM)?
**A.** Its residual activity is 19%.

**Q.** And the residual activity (RPS6KA2 KD1 KD2 (human); compound 10.0 µM)?
**A.** The residual activity was 4%.

**Q.** What about the residual activity ([1]; compound 1.0 µM) of the same molecule?
**A.** Its residual activity is 17%.

**Q.** What about the residual activity ([1]; compound 10.0 µM) of the same molecule?
**A.** Its residual activity is 8%.

**Q.** And the residual activity (STK11 (human); compound 1.0 µM)?
**A.** Its residual activity is 83%.

**Q.** What about the residual activity (STK11 (human); compound 10.0 µM) of the same molecule?
**A.** The residual activity was 44%.

**Q.** And the residual activity (HIPK1 (human); compound 1.0 µM)?
**A.** The residual activity was 90%.

**Q.** And the residual activity (HIPK1 (human); compound 10.0 µM)?
**A.** Its residual activity is 73%.

**Q.** And the residual activity (DAPK2 (human); compound 1.0 µM)?
**A.** Its residual activity is 73%.

**Q.** And the residual activity (DAPK2 (human); compound 10.0 µM)?
**A.** Its residual activity is 23%.

**Q.** And the residual activity (FGFR2 (human); compound 1.0 µM)?
**A.** Its residual activity is 22%.

**Q.** And the residual activity (FGFR2 (human); compound 10.0 µM)?
**A.** Its residual activity is 2%.

**Q.** What about the residual activity (ROCK1 (human); compound 1.0 µM) of the same molecule?
**A.** Its residual activity is 108%.

**Q.** And the residual activity (ROCK1 (human); compound 10.0 µM)?
**A.** The residual activity was 92%.

**Q.** And the residual activity (ZAP70 (human); compound 1.0 µM)?
**A.** The residual activity was 79%.

**Q.** What about the residual activity (ZAP70 (human); compound 10.0 µM) of the same molecule?
**A.** The residual activity was 91%.

**Q.** And the residual activity (TYRO3 (human); compound 1.0 µM)?
**A.** Its residual activity is 62%.

**Q.** And the residual activity (TYRO3 (human); compound 10.0 µM)?
**A.** Its residual activity is 15%.

**Q.** And the residual activity (ULK3 (human); compound 1.0 µM)?
**A.** The residual activity was 55%.

**Q.** What about the residual activity (ULK3 (human); compound 10.0 µM) of the same molecule?
**A.** The residual activity was 12%.

**Q.** What about the residual activity (PRKCB1 (human); compound 1.0 µM) of the same molecule?
**A.** The residual activity was 93%.

**Q.** What about the residual activity (PRKCB1 (human); compound 10.0 µM) of the same molecule?
**A.** The residual activity was 94%.

**Q.** And the residual activity (ITK (human); compound 1.0 µM)?
**A.** The residual activity was 19%.

**Q.** What about the residual activity (ITK (human); compound 10.0 µM) of the same molecule?
**A.** Its residual activity is 1%.

**Q.** What about the residual activity (FGFR1 (human); compound 1.0 µM) of the same molecule?
**A.** The residual activity was 3%.

**Q.** And the residual activity (FGFR1 (human); compound 10.0 µM)?
**A.** Its residual activity is -1%.

**Q.** And the residual activity (ERBB4 (human); compound 1.0 µM)?
**A.** Its residual activity is 107%.

**Q.** What about the residual activity (ERBB4 (human); compound 10.0 µM) of the same molecule?
**A.** Its residual activity is 99%.

**Q.** And the residual activity (SRPK1 (human); compound 1.0 µM)?
**A.** The residual activity was 90%.

**Q.** And the residual activity (SRPK1 (human); compound 10.0 µM)?
**A.** The residual activity was 66%.

**Q.** What about the residual activity (PASK (human); compound 1.0 µM) of the same molecule?
**A.** The residual activity was 112%.

**Q.** What about the residual activity (PASK (human); compound 10.0 µM) of the same molecule?
**A.** The residual activity was 76%.

**Q.** And the residual activity (CDK7 CCNH MNAT1 (human); compound 1.0 µM)?
**A.** Its residual activity is 42%.

**Q.** What about the residual activity (CDK7 CCNH MNAT1 (human); compound 10.0 µM) of the same molecule?
**A.** Its residual activity is 16%.

**Q.** And the residual activity (ULK2 (human); compound 1.0 µM)?
**A.** The residual activity was 93%.

**Q.** And the residual activity (ULK2 (human); compound 10.0 µM)?
**A.** Its residual activity is 59%.

**Q.** And the residual activity (PAK4 (human); compound 1.0 µM)?
**A.** The residual activity was 55%.

**Q.** And the residual activity (PAK4 (human); compound 10.0 µM)?
**A.** Its residual activity is 14%.

**Q.** And the residual activity (ABL1 (human); compound 1.0 µM)?
**A.** Its residual activity is 49%.

**Q.** What about the residual activity (ABL1 (human); compound 10.0 µM) of the same molecule?
**A.** The residual activity was 16%.

**Q.** What about the residual activity (RIPK2 (human); compound 1.0 µM) of the same molecule?
**A.** Its residual activity is 60%.

**Q.** And the residual activity (RIPK2 (human); compound 10.0 µM)?
**A.** The residual activity was 27%.

**Q.** And the residual activity (KDR (human); compound 1.0 µM)?
**A.** Its residual activity is 4%.

**Q.** What about the residual activity (KDR (human); compound 10.0 µM) of the same molecule?
**A.** Its residual activity is 1%.

**Q.** And the residual activity (YES1 (human); compound 1.0 µM)?
**A.** Its residual activity is 17%.

**Q.** And the residual activity (YES1 (human); compound 10.0 µM)?
**A.** The residual activity was 0%.

**Q.** And the residual activity ([2]; compound 1.0 µM)?
**A.** The residual activity was 59%.

**Q.** What about the residual activity ([2]; compound 10.0 µM) of the same molecule?
**A.** The residual activity was 28%.

From the kinase profiling compilation of Christmann-Franck et al. (2016)
